Measured values reported in patent publication US7893199B2, “Peptides having neutrophil-stimulating activity” (National University Corporation Gunma University, priority 2006, dated 2011).
pEC50: −log10 of the molar value. Where no end group is shown, it is not given here. The star is where a group is joined. Biotin = O=C1N[C@H]2[C@H](CS[C@H]2CCCCC(=O)*)N1

What was measured:
[1] = system: differentiated HL-60 cells; assay: migration activity (Chemotaxis Index) of differentiated HL-60 cells; type: cell-based, human
Protocol: (3) Measurement of Migration Activity
The cells were collected by centrifuging the suspension of the differentiated HL-60 cells (1,000 rpm, 5 minutes, 4° C.). After that, the following operation was repeated three times to wash the cells: 10% FBS-RPMI1640 was added to the cells; the mixture was suspended by inversion; and the mixture was centrifuged again (1,000 rpm, 5 minutes, 4° C.). Then, a medium (10% FBS-RPMI1640) was added so that a cell density was 4×10^6 cells/ml, thereby a cell suspension was prepared. Subsequently, 1 ml of each peptide solution (dissolved in 10% FBS-RPMI 1640) was transferred to each well of a 24-well plate, and the plate was incubated at 37° C. for 20 minutes. After that, 500 μl of the cell suspension (2×10^6 cells) were put in Chemotaxicell (KURABO […] LTD., 3 μm) and the Chemotaxicell was set in a plate, followed by incubation in the presence of 5% CO2 at 37° C. for 1 hour. Then, the Chemotaxicell was removed and the solution in each well of the plate was pipetted. The cells migrated to the plate side was suspended well and the number of the cells were measured. Note that the migration activity by the peptide was represented by a ratio of the number of the cells to the number of the cells passing the Chemotaxicell at the time of non-stimulation (Chemotaxis Index, CI).

[2] = system: G protein in the differentiated HL-60 cell membrane fraction; assay: G protein activation ability (GTP hydrolysis) in cell membrane fraction; type: biochemical, human
Protocol: (4) Measurement of G Protein Activation Ability
The cells were collected by centrifuging the suspension of the differentiated HL-60 cells (1,000 rpm, 5 minutes, 4° C.). After that, the following operation was repeated three times to wash the cells: ice-cooled PBS was added to the cells; the mixture was suspended by inversion; and the mixture was centrifuged (1,000 rpm, 5 minutes, 4° C.). Then, the precipitated cells were suspended in a buffer for preparing a cell membrane fraction (20 mM Tris-HCl, 250 mM sucrose, 1.5 mM MgCl2, 3 mM benzamidine hydrochloride monohydrate, 1 μM leupeptin, 1 μM PMSF, 2 μg/ml trypsin inhibitor, pH 7.5) and a cell homogenate was prepared using nitrogen pressing-depressing type cell homogenizing apparatus (nitrogen pressure: 350 psi). After that, the resultant was ultracentrifuged (20,000 g, 4° C., 30 minutes) to remove the supernatant, and the precipitate was suspended in a membrane fraction buffer (20 mM Tris-HCl, 1 mM EDTA, 1 mM DTT, 77.5 mTIU/ml aprotinin, pH 7.5) and used as a cell membrane fraction. After dispensed, the cell membrane fraction was stored at −80° C. The activity of the G protein was quantified using the activity to hydrolyze GTP to GDP as an index. […] The mixture was centrifuged (15,000 rpm, 1 minute, 4° C.), and the radioactivity of the supernatant was measured.

bovine Gi1-G protein = biological target: T1, bovine Gi1-G protein (Bos taurus, UniProt P63097); assay: G protein activation ability (GTP hydrolysis) with purified Gi1; type: biochemical
T1 construct: made in house; host or cells: E. coli
T1 sequence (P63097 whole entry): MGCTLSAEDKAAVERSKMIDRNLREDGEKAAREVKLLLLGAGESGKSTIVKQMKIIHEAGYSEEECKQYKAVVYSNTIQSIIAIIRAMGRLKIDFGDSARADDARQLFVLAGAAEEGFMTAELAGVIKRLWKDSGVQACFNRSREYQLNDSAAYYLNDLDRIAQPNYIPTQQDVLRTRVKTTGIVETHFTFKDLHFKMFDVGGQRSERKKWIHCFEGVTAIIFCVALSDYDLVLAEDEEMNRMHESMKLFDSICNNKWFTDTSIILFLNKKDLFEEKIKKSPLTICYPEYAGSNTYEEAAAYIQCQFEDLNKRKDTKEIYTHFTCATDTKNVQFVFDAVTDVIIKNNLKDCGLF

[3] = system: HL-60 cells differentiated into the neutrophil-like cells; assay: β-hexosaminidase-secreting activity of neutrophil-like differentiated HL-60 cells; type: cell-based, human; settings: differentiated HL-60 cells; read-out: EC50, β-hexosaminidase-secreting activity
Source text: (1) Culture of Cell and Differentiation Into Neutrophil-like Cell
In this time, the cells were subcultured at a cell density of 1.0×10^5 cells/ml to 1.5×10^6 cells/ml, the number of cells was counted using a microscope, and the state of the cells was also confirmed.
The HL-60 cells were differentiated into neutrophil-like cells by setting the cell density in the flask to about 1.0×10^6 cells/ml, adding dibutylyl-cAMP (db-cAMP) as a differentiation-inducing agent so as to have a final concentration of 500 μM, and incubating the cells in the presence of CO2 at 37° C. for 3 days.
(2) Stimulation of Cell and Measurement of β-Hexosaminidase-secreting Activity
The cells were collected by centrifuging the suspension of the differentiated HL-60 cells (1,000 rpm, 5 minutes, 4° C.). After that, the following operation was repeated three times to wash the cells: Hepes buffered Hank's solution (HBHS) containing ice-cooled 0.1% BSA (1.2 mM CaCl2.2H2O, 5.4 mM KCl, 0.44 mM KH2PO4, 0.49 mM MgCl2.6H2O, 0.41 mM MgSO4.7H2O, 136.9 mM NaCl, 0.34 mM Na2HPO4, 10 mM Hepes, 4.2 mM NaHCO3, 5.5 mM D-glucose, pH 7.4) was added to the cells; the mixture was suspended by inversion; and the mixture was centrifuged again (1,000 rpm, 5 minutes, 4° C.). Subsequently, HBHS was added so that the mixture has a cell density of 5.6×10^6 cells/ml and suspended. Then, DNase I and cytochalasin B were each added so as to have a final concentration of 5 μg/ml, and the cell suspension was dispensed in an amount of 90 μl (5×10^5 cells) on ice. […] After the cell stimulation for 10 minutes, 100 μl of an ice-cooled stop solution (25 mM Tris, 123 mM NaCl, 2.7 mM KCl, pH 7.4) were added, and immediately, the mixture was centrifuged (5,000 rpm, 1 minute, 4° C.). 200 μl of the obtained supernatant were transferred to a new tube.
The amount of β-hexosaminidase released in the supernatant of the reaction solution was measured by an enzyme reaction using p-nitrophenyl-N-acetyl-μ-D-glucosaminide as a substrate (Non-patent Document 12). That is, the supernatant of the reaction solution was dispensed in an amount of 90 μl to a 96-well plate. 60 μl of a substrate solution (10 mM p-nitrophenyl-N-acetyl-μ-D-glucosaminide, 40 mM citrate, 70 mM Na2HPO4, pH 4.5) were added to each well, followed by incubation at 37° C. for 1 hour. After the reaction, 100 μl of a stop solution (0.4 M glycine, pH 10.7) were added to each well and a color of the released p-nitrophenol was developed. The color development was measured with a plate reader at adsorption at 405 nm (reference: 492 nm). The all amount of β-hexosaminidase contained in the cells was quantified by treating the cells with Triton X-100 having a final concentration of 0.05%. In addition, the amount of β-hexosaminidase secreted by stimulation of 10 μM fMLP was also measured, and the ratio of the secretion amount by stimulation with each peptide to the above sectretion amount by stimulation with fMLP.

[4] = system: neutrophil-like differentiated HL-60 cells; assay: binding of biotinylated peptides to cell surfaces (streptavidin-Alexa488 fluorescence microscopy); parameters: species or system human; settings: peptide 10 μM, 37° C., 30 minutes
Protocol: (§1) Thus, it was confirmed that the synthesized functional peptide derivatives had the activities. Therefore, subsequently, in order to identify the binding sites of the functional peptides in the cells, these peptides (final concentration 10 μM) were incubated with the neutrophil-like differentiated HL-60 cells or undifferentiated HL-60 cells prepared in Example 3-(3) at 37° C. for 30 minutes. After that, the obtained cell suspension was centrifuged (1,000 rpm, 5 minutes, 4° C.) and the supernatant was removed. Further, HBHS was added and the mixture was centrifuged to wash the cells. Then, the cells were resuspended in HBHS. A streptavidin-HBHS labeled with a fluorescence, Alexa488 (Molecular probe, Invitrogen Corporation.) was added thereto, and the mixture was centrifuged, and the supernatant was removed. Further, the following operation was repeated three times to wash the cells: HBHS was added and the mixture was centrifuged.

[5] = biological target: T2, heat shock 70 kDa protein 8 isoform 1 (SEQ ID NO: 52) (Homo sapiens, UniProt P11142); assay: chemical crosslinking experiment, streptavidin beads, electrophoresis (receptor identification); type: binding; settings: peptide 10 μM; for bands of specifically binding proteins in SDS gel electrophoresis: differentiated HL-60 cell lysate, silver stain
T2 construct: endogenous in cells; host or cells: neutrophil-like differentiated HL-60 cells
T2 sequence (P11142 whole entry, canonical isoform): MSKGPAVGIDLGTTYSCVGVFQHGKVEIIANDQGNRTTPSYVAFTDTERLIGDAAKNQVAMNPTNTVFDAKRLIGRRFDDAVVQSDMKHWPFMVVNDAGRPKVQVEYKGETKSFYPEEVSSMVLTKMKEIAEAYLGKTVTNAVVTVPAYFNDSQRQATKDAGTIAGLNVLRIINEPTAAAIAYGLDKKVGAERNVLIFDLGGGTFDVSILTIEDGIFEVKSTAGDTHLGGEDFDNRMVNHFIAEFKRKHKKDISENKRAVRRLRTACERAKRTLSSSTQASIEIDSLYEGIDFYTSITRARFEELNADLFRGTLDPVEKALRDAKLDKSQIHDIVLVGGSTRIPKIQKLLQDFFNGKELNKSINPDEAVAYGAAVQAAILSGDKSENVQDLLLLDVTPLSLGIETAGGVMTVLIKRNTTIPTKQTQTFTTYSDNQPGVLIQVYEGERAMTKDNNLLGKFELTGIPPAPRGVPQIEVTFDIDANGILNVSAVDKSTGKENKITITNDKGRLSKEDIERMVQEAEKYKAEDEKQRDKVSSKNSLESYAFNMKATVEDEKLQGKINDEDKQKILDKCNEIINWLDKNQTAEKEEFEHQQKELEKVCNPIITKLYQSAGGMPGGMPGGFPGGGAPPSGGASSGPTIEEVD
Protocol: Then, in order to identify directly the receptor molecules to which these functional peptides are bound, the following chemical crosslinking experiment was performed. That is, the HL-60 cells differentiated into the neutrophil-like cells were suspended in HBHS (not containing 0.1% BSA). The suspension was centrifuged (1,000 rpm, 5 minutes, 4° C.) and the supernatant was removed. The cells were suspended again in the HBHS not containing BSA so as to have the cell density of 5.6×10^6 cells/ml. The obtained cell suspension was preincubated at 37° C. for 10 minutes at first, and 1/10 volume of mitocryptide-3 and -5, [Cys^0]mitocryptide-3, [Cys^0]mitocryptide-5, [Cys^24]mitocryptide-3, and peptides obtained by introducing biotin into the N terminals thereof (N-biotinyl-mitocryptide-3, N-biotinyl-mitocryptide-5, N-biotinyl-[Cys^0]mitocryptide-3, N-biotinyl-[Cys^0]mitocryptide-5, and N-biotinyl-[Cys^24]mitocryptide-3) were added to have the final concentration of 10 μM, followed by incubation at 37° C. for 30 minutes. After that, the cell suspension was centrifuged (5,000 rpm, 4° C., 1 minute) and the supernatant was removed. The resultant cells were resuspended in HBHS not containing BSA and centrifuged again to wash the cells. 1 ml of a buffer for dissolving cells (100 mM NaCl, 20 mM Tris-HCl, 1 mM EDTA, 77.5 mTIU/ml aprotinin, 1 μM leupeptin, 1 μg/ml pepstatin A, 1 μg/ml phosphoramidone, 1% CHAPS, pH 7.5) with respect to 1 ml of the original cell suspension was added to the cell precipitate, and the mixture was incubated at 4° C. for 30 minutes to dissolve the cells, thereby a cell lysate was prepared. The cell lysate was centrifuged (15,000 rpm, 4° C., 15 minutes) and the supernatant was centrifuged again in the same condition. The obtained supernatant was incubated with streptavidin beads at 4° C. for 30 minutes, then, the beads were washed by centrifugation with the buffer for dissolving cells three times. Further, the beads were treated by heat at 100° C. for 10 minutes in the buffer for dissolving cells, and the mixture was centrifuged. The obtained supernatant was subjected to an SDS gel electrophoresis to separate the contained protein. Then, the gel was stained by silver stain method, thereby the proteins were analyzed. […] As a result, two specific spots were detected (FIG. 15-A). Therefore, the protein was extracted and degraded with trypsin, and then, the degraded proteins were analyzed by mass spectrometry.

[6] = system: undifferentiated HL-60 cells; assay: binding of biotinylated peptides to cell surfaces (streptavidin-Alexa488 fluorescence microscopy); parameters: species or system human; settings: peptide 10 μM, 37° C., 30 minutes
Protocol: as §1

For MFPLVKSALNRLQVRSIQQTMARQ [No. 015], the “concentration of migration activity compared with that of β-hexosaminidase-secreting activity” value [1] was “confirmed at the almost same concentration”, the “desensitization of migration activity with increasing concentration of the peptide” value [1] was “subjected to desensitization completely” and the “activation of G protein” value [2] was “activated”. The “activation of purified Gi1 protein” value (bovine Gi1-G protein) was “activated” and the pEC50 [3] was 6.42.

“N-biotinyl-Cys-Gln-Leu-Trp-Ala-Val-Gly-Ser-Phe-Met-NH2 (Biotin-CQLWAVGSFM-NH2; SMILES CSCC[C@H](NC(=O)[C@H](Cc1ccccc1)NC(=O)[C@H](CO)NC(=O)CNC(=O)[C@@H](NC(=O)[C@H](C)NC(=O)[C@H](Cc1c[nH]c2ccccc12)NC(=O)[C@H](CC(C)C)NC(=O)[C@H](CCC(N)=O)NC(=O)[C@H](CS)NC(=O)CCCC[C@@H]1SC[C@@H]2NC(=O)N[C@@H]21)C(C)C)C(N)=O) [reference compound]” was tested, and the “binding to cell surfaces” value [4] was “no binding was confirmed at all”.

For “N-biotinyl-[Cys^0]mitocryptide-3: [Cys^0]mitocryptide-3 with biotin introduced into the N terminal (Biotin-CMLWNLLALHQIGQRTISTASHRH)”, the “bands of specifically binding proteins in SDS gel electrophoresis” value [5] was “five bands indicating specific binding”, the “binding to cell surfaces” value [6] was “less bound to the surfaces of the undifferentiated HL-60 cells” and the “binding to cell surfaces” value [4] was “bound to the surfaces of the neutrophil-like differentiated HL-60 cells specifically”.

With “N-biotinyl-[Cys^0]mitocryptide-5: [Cys^0]mitocryptide-5 with biotin introduced into the N terminal (Biotin-CMFPLVKSALNRLQVRSIQQTMARQ)” the “binding of heat shock 70 kDa protein 8 isoform 1 to the peptide” value ([5]; differentiated HL-60 cells) was “bound” and the “binding to cell surfaces” value [4] was “bound to the surfaces of the cells specifically”.

For “N-biotinyl-[Cys^24]mitocryptide-3: [Cys^24]mitocryptide-3 with biotin introduced into the N terminal (Biotin-MLWNLLALHQIGQRTISTASHRHC)”, the “bands of specifically binding proteins in SDS gel electrophoresis” value [5] was “five bands indicating specific binding”.
